From patent US11318110B2, “Pharmaceutical composition for reducing local fat and uses thereof” (Caliway Biopharmaceuticals Co., Ltd., priority 2015, dated 2022)

Experiments:
[1] = tested on: mature adipocytes (differentiated 3T3-L1 cells); test: Apoptosis of mature adipocytes, annexin V/PI flow cytometry (Experiment 10-2); assay type: cell-based; conditions: 50 ppm total drug (complexes: 20 ppm curcumin + 30 ppm hydrophilic drug), 24 hours; sterile water control 0.8±0.4%
Source text: The curcumin cell culture medium: same as the preparation of the curcumin cell culture medium in Experiment 8-2. […] Caffeine (purchased from Sigma-Aldrich) was mixed with an appropriate amount of sterile water to obtain a caffeine solution. The caffeine solution was mixed with a cell culture medium to prepare the caffeine cell culture medium containing 50 ppm of caffeine. Wherein, the volume ratio of the caffeine cell culture medium and the cell culture medium was 1:1000. The L-carnitine cell culture medium: L-carnitine (purchased from Sigma-Aldrich) was mixed with an appropriate amount of sterile water to obtain a L-carnitine solution. The L-carnitine solution was mixed with a cell culture medium to prepare the caffeine cell culture medium containing 50 ppm of L-carnitine. Wherein, the volume ratio of the L-carnitine cell culture medium and the cell culture medium was 1:1000. The curcumin-caffeine complex cell culture medium: Curcumin and caffeine were mixed with an appropriate amount of sterile water to prepare a curcumin-caffeine complex solution. […] Wherein, the concentration of curcumin was 20 ppm, the concentration of caffeine was 30 ppm, and the volume ratio of the curcumin-caffeine complex solution and the cell culture medium was 1:1000. The curcumin-L-carnitine complex cell culture medium: Curcumin and L-carnitine were mixed with an appropriate amount of sterile water to prepare a curcumin-L-carnitine complex solution. […] Wherein, the concentration of curcumin was 20 ppm, the concentration of L-carnitine was 30 ppm, and the volume ratio of the curcumin-L-carnitine complex solution and the cell culture medium was 1:1000. […] Annexin V protein (purchased from eBioscience) and propidium iodide (PI; purchased from eBioscience) were mixed with the cells in each group for a period of time, and then the percentage of cells labeled by annexin V protein and PI in each group was analyzed by flow cytometry to assess the percentage of mature adipocytes undergoing apoptosis.

[2] = tested on: rat somatic cells except adipocytes; test: Cytotoxicity test by MTT assay (Experiment 10-1); assay type: cell-based; conditions: 50 ppm
Source text: Determine if 50 ppm of caffeine and L-carnitine have toxicity to cells other than adipocytes by MTT assay. Only if the drug is deemed non-toxic will lipolysis test be proceeded.

[3] = tested on: lower inguinal subcutaneous fat of rats; test: Administered dosage of curcumin-resveratrol complex composition, localized subcutaneous fat of rats (Experiment 7-5); assay type: in vivo; conditions: 0.04 μg/kg injected on days 1-4; 14-day experiment; high-fat diet control 100±15.2%
Experimental: LIPO-202 is a local lipolysis injection formulation currently undergoing clinical trials, and its main ingredient is salmeterol xinafonate. • (i) 1 mg of salmeterol xinafonate (purchased from Sigma-Aldrich) was mixed with an appropriate amount of methanol to a total volume of 1 mL to obtain a 1 mg/mL stock solution. • (ii) The stock solution was 10-fold serial diluted with sterile water to prepare a salmeterol xinafonate solution of a final concentration of 0.01 μg/mL, which is the LIPO-202 solution used in this experiment. same as the preparation of the curcumin-resveratrol complex solution comprising ELP described in Experiment 7-2. […] The rats were fed in the same manner described in Experiment 2. […] The LIPO-202 solution was injected to the lower inguinal subcutaneous fat layer of rats in the LIPO-202 group. […] The 1 mg/mL complex formula group: […] The 5 mg/mL complex formula group: The curcumin-resveratrol complex pharmaceutical composition was injected to the lower inguinal subcutaneous fat layer of rats in the 5 mg/mL complex formula group. […] The 10 mg/mL complex formula group: […] The 20 mg/mL complex formula group: […] Rats were injected once a day on day 1, 2, 3, and 4 of the experiment. The rats were fed with high-fat diet for the entire duration of the experiment. The experiment lasted for 14 days, and the rats were euthanized on day 15 by CO2.

[4] = tested on: mature adipocytes (differentiated 3T3-L1 cells); test: Apoptosis of mature adipocytes, annexin V/PI flow cytometry (Experiment 8-2); assay type: cell-based; conditions: 50 ppm total drug (complexes: 20 ppm curcumin + 30 ppm second drug), 24 hours; DMSO control 0.8±0.2%
Source text: The curcumin cell culture medium: curcumin was mixed with an appropriate amount of 0.5% DMSO solution to obtain a curcumin solution. The curcumin solution was mixed with a cell culture medium (product name: Dulbecco's Modified Eagle Medium, purchased from Gibco) to prepare the curcumin cell culture medium containing 50 ppm of curcumin, wherein, the volume ratio between the curcumin solution and the cell culture medium was 1:1000. The puerarin cell culture medium: puerarin (purchased from Sigma-Aldrich) was mixed with an appropriate amount of 0.5% DMSO solution to obtain a puerarin solution. The puerarin solution was mixed with a cell culture medium to prepare the puerarin cell culture medium containing 50 ppm of puerarin, wherein, the volume ratio between the puerarin solution and the cell culture medium is 1:1000. The quercetin cell culture medium: quercetin (purchased from Sigma-Aldrich) was mixed with an appropriate amount of 0.5% DMSO solution to obtain a quercetin solution. The quercetin solution was mixed with a cell culture medium to prepare the quercetin cell culture medium containing 50 ppm of quercetin, wherein, the volume ratio between the quercetin solution and the cell culture medium was 1:1000. The synephrine cell culture medium: synephrine (purchased from Sigma-Aldrich) was mixed with an appropriate amount of 0.5% DMSO solution to obtain a synephrine solution. The synephrine solution was mixed with a cell culture medium to prepare the synephrine cell culture medium containing 50 ppm of synephrine, wherein, the volume ratio between the synephrine solution and the cell culture medium was 1:1000. The curcumin-puerarin complex cell culture medium: curcumin and puerarin were mixed with an appropriate amount of 0.5% DMSO solution to obtain a curcumin-puerarin complex solution. […] The curcumin-quercetin complex cell culture medium: curcumin and quercetin were mixed with an appropriate amount of 0.5% DMSO solution to obtain a curcumin-quercetin complex solution. […] Experimental procedure to determine the lipolysis efficacy on mature adipocytes The adipocyte precursors 3T3-L1 cells (purchased from the Food Industry Research and Development Institute, Taiwan; abbreviated as BCRC) were seeded in 12-well plates, such that each well contained 1×10^5 cells. […] Annexin V protein (purchased from eBioscience) and propidium iodide (PI; purchased from eBioscience) were mixed with the cells in each group for a period of time, and then the percentage of cells labeled by annexin V protein and PI in each group was analyzed by flow cytometry to assess the percentage of mature adipocytes undergoing apoptosis. […] The data were presented as mean±SD and analyzed by one-way ANOVA. […]

[5] = tested on: lower inguinal subcutaneous fat of rats; test: Dosing frequency of curcumin-green tea extract complex composition, localized subcutaneous fat of rats (Experiment 9-2); assay type: in vivo; conditions: 10.3 mg/kg on days 1, 3, 5 (total 30.9 mg/kg); 20-day experiment; control 100.0±22.6%
Experimental: (§1) Preparation of the sodium deoxycholate solution: same as the preparation of the sodium deoxycholate solution in Experiment 7-4.
(§2) Preparation of the curcumin-green tea extract complex pharmaceutical composition: 0.8 g of curcumin was mixed with 150˜200 mL of dichloromethane and stirred at 150˜500 rpm to completely dissolve curcumin. 40 g of KOLLIPHOR® ELP (also known as CREMOPHOR® ELP, polyoxyl 35 castor oil, abbreviated as ELP) was added and stirred at 100˜300 rpm to volatilize dichloromethane. Once dichloromethane volatilized completely, normal saline for injection was slowly added to a total volume of 200 mL. Wherein, the normal saline for injection comprised 0.2 g of green tea extract. The solution was mixed well to obtain the curcumin-green tea extract complex solution comprising ELP. Said curcumin-green tea extract complex solution comprising ELP comprised drug-containing micelles, the total concentration of curcumin and green tea was 5 mg/mL, and the weight ratio of curcumin and green tea extract was 4:1
(§3) The rats were randomly assigned into 4 groups, which were a high-fat diet control group, a sodium deoxycholate group, a high-dosing frequency curcumin-green tea extract group (abbreviated as high-dosing frequency group in this experiment), and a low-dosing frequency curcumin-green tea extract group (abbreviated as low-dosing frequency group). […]

[6] = Dosing frequency of curcumin-green tea extract complex composition, body weight gain of rats (Experiment 9-2); assay type: in vivo; conditions: 10.3 mg/kg on days 1, 3, 5 (total 30.9 mg/kg); control 100.0±11.6%
Experimental: as §1, §2, §3

[7] = Dosing frequency of curcumin-resveratrol complex composition, body weight gain of rats (Experiment 7-4); assay type: in vivo; conditions: 10.3 mg/kg on days 1, 3, 5 (total 30.9 mg/kg); control 100.0±11.6%
Experimental: (§4) Preparation of the sodium deoxycholate solution: An appropriate amount of sodium deoxycholate was mixed with sterile water for injection to make the concentration of sodium deoxycholate 2.575 mg/mL. The solution was mixed well to obtain the sodium deoxycholate solution. Wherein, sodium deoxycholate (purchased from Sigma-Aldrich, cat #D6750) is the main ingredient of the local lipolysis injection formulation ATX-101 (brand name: KYBELLA®) in the market.
(§5) Preparation of the curcumin-resveratrol complex pharmaceutical composition: same as the preparation of the curcumin-resveratrol complex solution comprising ELP described in Experiment 7-2. Wherein, the total concentration of curcumin and resveratrol was 5 mg/mL, and the ratio of curcumin to resveratrol was 4:1.
(§6) The rats were randomly assigned into 4 groups, which were a high-fat diet control group, a sodium deoxycholate group, a high-dosing frequency curcumin-resveratrol group (abbreviated as high-dosing frequency group in this experiment), and a low-dosing frequency curcumin-resveratrol group (abbreviated as low-dosing frequency group in this experiment). The rats were fed in the same manner described in Experiment 2.
(§7) The sodium deoxycholate group: The sodium deoxycholate solution was injected to the lower inguinal subcutaneous fat layer of rats in the sodium deoxycholate group. […]

[8] = tested on: lower inguinal subcutaneous fat of rats; test: Dosing frequency of curcumin-resveratrol complex composition, localized subcutaneous fat of rats (Experiment 7-4); assay type: in vivo; conditions: 10.3 mg/kg on days 1, 3, 5 (total 30.9 mg/kg); 20-day experiment; control 100.0±22.6%
Experimental: as §4, §5, §6, §7

## C[N+](C)(C)C[C@H](O)CC(=O)[O-] [L-carnitine]
[1]
  percentage of apoptotic cells: 1.7±0.5%
[2]
  cytotoxicity (MTT assay): not cytotoxic

## OCc1cc(C(O)CNCCCCCCOCCCCc2ccccc2)ccc1O (centres unmarked) [LIPO-202, salmeterol xinafonate]
[3]
  relative weight of the lower inguinal subcutaneous fat: 97.8±12.8%

## Cn1c(=O)c2c(ncn2C)n(C)c1=O [caffeine]
[1]
  percentage of apoptotic cells: 2.0±1.7%
[2]
  cytotoxicity (MTT assay): not cytotoxic

## COc1cc(/C=C/C(=O)CC(=O)/C=C/c2ccc(O)c(OC)c2)ccc1O [curcumin]
[4]
  percentage of apoptotic cells: 78.4±5.4%
[1]
  percentage of apoptotic cells: 78.4±5.4%

## O=c1c(-c2ccc(O)cc2)coc2c([C@@H]3O[C@H](CO)[C@@H](O)[C@H](O)[C@H]3O)c(O)ccc12 [puerarin]
[4]
  percentage of apoptotic cells: 2.0±1.6%

## O=c1c(O)c(-c2ccc(O)c(O)c2)oc2cc(O)cc(O)c12 [quercetin]
[4]
  percentage of apoptotic cells: 1.8±0.6%

## CNCC(O)c1ccc(O)cc1 (centres unmarked) [synephrine]
[4]
  percentage of apoptotic cells: 0.9±0.2%

## sodium deoxycholate
[5]
  relative weight of the lower inguinal subcutaneous fat: 88.8±16.7%
[6]
  relative weight gain: 100.2±12.6%
[7]
  relative weight gain: 100.2±12.6%
[8]
  relative weight of the lower inguinal subcutaneous fat: 88.8±16.7%
